How the values were obtained:
human OCT2 = biological target: T1, human OCT2 (Homo sapiens, UniProt O15244); test: OCT inhibition in transfected cells ([3H]ASP+ uptake); type: cell-based
T1 construct: expressed in transfected cells; host or cells: COS cells
T1 sequence (O15244 1-555): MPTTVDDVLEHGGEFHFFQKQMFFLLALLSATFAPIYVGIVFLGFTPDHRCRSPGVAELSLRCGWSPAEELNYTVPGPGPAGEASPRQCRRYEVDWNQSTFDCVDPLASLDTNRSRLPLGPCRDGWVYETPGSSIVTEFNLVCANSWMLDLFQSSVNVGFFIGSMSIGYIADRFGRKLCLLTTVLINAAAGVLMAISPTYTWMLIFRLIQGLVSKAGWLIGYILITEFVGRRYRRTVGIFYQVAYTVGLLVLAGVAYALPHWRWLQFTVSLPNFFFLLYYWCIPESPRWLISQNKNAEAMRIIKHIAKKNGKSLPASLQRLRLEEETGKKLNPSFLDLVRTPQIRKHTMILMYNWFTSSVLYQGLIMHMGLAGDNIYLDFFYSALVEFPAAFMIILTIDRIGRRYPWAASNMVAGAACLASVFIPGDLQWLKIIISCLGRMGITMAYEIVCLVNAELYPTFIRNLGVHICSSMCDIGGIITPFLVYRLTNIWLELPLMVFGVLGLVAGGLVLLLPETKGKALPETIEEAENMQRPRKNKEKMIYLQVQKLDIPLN
Source text: Method. […] Tested concentrations: 1.10^−9; 3.10^−9; 1.10^−8; 3.10^−8; 1.10^−7; 3.10^−7; 1.10^−6; 3.10^−6 mol·L^−1.

alpha 1D adrenoceptors = biological target: T2, alpha 1D adrenoceptors (Homo sapiens, UniProt P25100); test: Displacement of [3H]Prazosin binding in CHO cells (Eurofins); conditions: 0.2 nM [3H]Prazosin, 60 min, 22° C., human recombinant, read-out: inhibition of binding of specific ligand
T2 construct: host or cells: CHO cells
T2 sequence (P25100 1-572): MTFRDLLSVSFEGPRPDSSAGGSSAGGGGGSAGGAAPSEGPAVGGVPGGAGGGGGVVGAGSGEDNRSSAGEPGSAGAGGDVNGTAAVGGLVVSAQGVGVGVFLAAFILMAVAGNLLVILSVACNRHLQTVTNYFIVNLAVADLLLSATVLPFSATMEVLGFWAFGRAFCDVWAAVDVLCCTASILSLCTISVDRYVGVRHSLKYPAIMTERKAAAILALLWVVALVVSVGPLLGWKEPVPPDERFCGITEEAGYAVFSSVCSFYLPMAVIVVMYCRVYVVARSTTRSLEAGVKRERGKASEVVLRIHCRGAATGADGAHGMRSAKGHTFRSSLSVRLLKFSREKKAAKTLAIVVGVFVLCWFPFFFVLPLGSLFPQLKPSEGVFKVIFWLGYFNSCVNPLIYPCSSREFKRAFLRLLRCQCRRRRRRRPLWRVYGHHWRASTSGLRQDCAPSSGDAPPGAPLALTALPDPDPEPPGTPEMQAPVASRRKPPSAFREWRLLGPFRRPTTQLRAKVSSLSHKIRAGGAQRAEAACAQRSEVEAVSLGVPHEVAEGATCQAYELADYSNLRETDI
Description: (§1) Method. The displacement by compound (II-1) of binding of selective ligands of alpha adrenergic receptors 1D and 2C (0.2 nM [^3H]Prazosin and 2 nM [^3H]RX 821002, respectively) was evaluated for 60 min at 22° C. in CHO cells expressing the human recombinant adrenoceptors (Eurofins).

alpha 2C adrenoceptors = biological target: T3, alpha 2C adrenoceptors (Homo sapiens, UniProt P18825); test: Displacement of [3H]RX 821002 binding in CHO cells (Eurofins); conditions: 2 nM [3H]RX 821002, 60 min, 22° C., human recombinant, read-out: inhibition of binding of specific ligand
T3 construct: host or cells: CHO cells
T3 sequence (P18825 1-462): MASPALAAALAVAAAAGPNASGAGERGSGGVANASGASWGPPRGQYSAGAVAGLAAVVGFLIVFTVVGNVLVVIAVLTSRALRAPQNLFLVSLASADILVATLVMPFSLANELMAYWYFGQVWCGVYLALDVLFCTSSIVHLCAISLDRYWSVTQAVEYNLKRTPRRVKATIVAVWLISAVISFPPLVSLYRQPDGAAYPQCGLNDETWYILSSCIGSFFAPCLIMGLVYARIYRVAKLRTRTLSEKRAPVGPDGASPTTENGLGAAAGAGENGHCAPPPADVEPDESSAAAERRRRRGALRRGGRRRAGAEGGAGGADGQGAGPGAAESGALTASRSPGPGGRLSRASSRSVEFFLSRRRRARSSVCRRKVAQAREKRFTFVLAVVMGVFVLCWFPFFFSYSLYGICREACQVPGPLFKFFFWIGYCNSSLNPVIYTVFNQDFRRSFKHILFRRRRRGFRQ
Description: as §1

COc1ccc2c(c1)C=C/C(=C/c1cc[n+](C(C)C)c3ccccc13)N2C(C)C.[I-] [II-1, (Z)-1-isopropyl-4-((1-isopropyl-6-methoxyquinolin-2(1H)-ylidene)methyl)quinolin-1-ium iodide]
IC50 less than that of D24 on human and rodent OCTs (human OCT2; hOCT2 IC50 versus literature D24 value): 3 to 4 fold | IC50 (human OCT2; uptake of [3H]ASP+ (5 μM) in COS cells transfected with human OCT2, 20 min, 37° C.): 82 nM | inhibition at 1 µM (alpha 1D adrenoceptors): 69% | inhibition at 1 µM (alpha 2C adrenoceptors): 66%

Reference: patent publication US11414398B2, “Selective organic cation transporters inhibitors for the treatment of depressive disorders” (priority 2017, dated 2022)
